From patent US20260034094A1, “COMPOSITIONS AND METHODS FOR INDUCING FERROPTOSIS” (Kojin Therapeutics, Inc., priority 2022, published 2026)

Legend:
human recombinant GCL = human recombinant GCL (Homo sapiens (Human), UniProt P48506); assay: GCL enzyme profiling assay (ADP-Glo luminescence); type: biochemical; details: human recombinant GCL, ADP-Glo; read-out: GCL IC50
Procedure, shortened: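 IC50 fitted by four-parameter logistic to luminescent ADP formation (ADP-Glo). Reaction at room temperature in HEPES pH 7.5 with 30 mM MgCl2, 0.2% F-127, 1% DMSO; 5 nM GCL and 0.6 mM ATP preincubated 1 h before adding 1 mM glutamate plus 1.2 mM α-aminobutyrate for 2 h.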

RKN cells = assay: RKN cell profiling assay (cell viability, CellTiter-Glo); type: cell-based; details: cell viability, read-out: Cell Killing EC50
Procedure, shortened: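 Viability read by CellTiter-Glo luminescence after 96 h compound exposure (0.5% DMSO final) of cells plated at 1,000/well in 10% FBS F-12 and allowed 24 h attachment. Four-parameter fits gave EC50; rescue arms used ferrostatin-1, 1.5 μM, present from seeding.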

human recombinant GCL, sequence (P48506 whole entry): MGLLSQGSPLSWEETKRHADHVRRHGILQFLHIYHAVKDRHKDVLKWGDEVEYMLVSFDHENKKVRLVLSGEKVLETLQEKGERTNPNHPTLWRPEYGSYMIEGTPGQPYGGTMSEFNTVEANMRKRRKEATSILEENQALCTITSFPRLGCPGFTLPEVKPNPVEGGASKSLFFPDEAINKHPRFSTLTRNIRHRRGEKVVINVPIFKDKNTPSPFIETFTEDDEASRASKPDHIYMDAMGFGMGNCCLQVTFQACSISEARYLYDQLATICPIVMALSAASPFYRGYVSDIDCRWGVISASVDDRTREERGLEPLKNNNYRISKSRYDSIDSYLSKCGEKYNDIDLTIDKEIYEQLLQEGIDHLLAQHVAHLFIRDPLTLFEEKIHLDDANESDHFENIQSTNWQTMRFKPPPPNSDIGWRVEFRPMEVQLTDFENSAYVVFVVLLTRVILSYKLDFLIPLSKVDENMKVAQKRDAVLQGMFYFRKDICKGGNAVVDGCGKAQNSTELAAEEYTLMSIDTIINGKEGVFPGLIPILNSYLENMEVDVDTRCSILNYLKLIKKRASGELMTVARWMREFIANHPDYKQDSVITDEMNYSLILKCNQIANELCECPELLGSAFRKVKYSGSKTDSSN

IC50 (human recombinant GCL) [mM] | Compound | EC50 (RKN cells) [mM]
≤ 0.02 | N=S(=O)(CCC(c1ccc(CCC(F)(F)F)cc1)C(F)(F)F)CC[C@H](N)C(=O)O (stereo partly drawn) [Compound 213, (2S)-2-amino-4-(4,4,4-trifluoro-3-(4-(3,3,3-trifluoropropyl)phenyl)butylsulfonimidoyl)butanoic acid] | ≥ 1
≤ 0.02 | N#CC1CC=C(c2ccc(C(CCS(=N)(=O)CC[C@H](N)C(=O)O)C(F)(F)F)cc2)CC1 (stereo partly drawn) [Compound 214, (2S)-2-amino-4-(3-(4′-cyano-2′,3′,4′,5′-tetrahydro-[1,1′-biphenyl]-4-yl)-4,4,4-trifluorobutylsulfonimidoyl)butanoic acid] | ≥ 1
≤ 0.02 | N=S(=O)(CCC(c1ccc(C#Cc2ccccc2)cc1)C(F)(F)F)CC[C@H](N)C(=O)O (stereo partly drawn) [Compound 215, (2S)-2-amino-4-(4,4,4-trifluoro-3-(4-(phenylethynyl)phenyl)butylsulfonimidoyl)butanoic acid] | < 1
0.02 to 2 | N=S(=O)(CCC(c1ccc(S(=O)(=O)c2ccccc2)cc1)C(F)(F)F)CC[C@H](N)C(=O)O (stereo partly drawn) [Compound 216, (2S)-2-amino-4-(4,4,4-trifluoro-3-(4-(phenylsulfonyl)phenyl)butylsulfonimidoyl) butanoic acid] | ≥ 1
≤ 0.02 | N=S(=O)(CCC(c1ccc(-c2cc(F)cc(F)c2)cc1)C(F)(F)F)CC[C@H](N)C(=O)O (stereo partly shown) [Compound 222] | < 1
≤ 0.02 | CCCc1ccc(C(CCS(=N)(=O)CC[C@H](N)C(=O)O)C(F)(F)F)cc1 (stereo partly shown) [Compound 223] | < 1
≤ 0.02 | CCCCc1ccc(C(CCS(=N)(=O)CC[C@H](N)C(=O)O)C(F)(F)F)cc1 (stereo partly shown) [Compound 224] | < 1
≤ 0.02 | N=S(=O)(CCC(c1ccc(-c2cc(F)ccc2O)cc1)C(F)(F)F)CC[C@H](N)C(=O)O (stereo partly shown) [Compound 232] | < 1
≤ 0.02 | N=S(=O)(CCC(c1ccc(-c2ccc(OC(F)(F)F)cc2)cc1)C(F)(F)F)CC[C@H](N)C(=O)O (stereo partly shown) [Compound 233] | < 1
≤ 0.02 | N=S(=O)(CCC(c1ccc(-c2cc(Cl)cc(Cl)c2)cc1)C(F)(F)F)CC[C@H](N)C(=O)O (stereo partly shown) [Compound 234] | ≥ 1
≤ 0.02 | COc1ccc(Cl)cc1-c1ccc(C(CCS(=N)(=O)CC[C@H](N)C(=O)O)C(F)(F)F)cc1 (stereo partly shown) [Compound 236] | < 1
≤ 0.02 | N=S(=O)(CCC(c1ccc(-c2ccc(Cl)c(C(F)(F)F)c2)cc1)C(F)(F)F)CC[C@H](N)C(=O)O (stereo partly shown) [Compound 237] | < 1
≤ 0.02 | N=S(=O)(CCC(c1ccc(-c2cc(F)ccc2Cl)cc1)C(F)(F)F)CC[C@H](N)C(=O)O (stereo partly shown) [Compound 238] | < 1
≤ 0.02 | N=S(=O)(CCC(c1ccc(-c2cccc(N)c2)cc1)C(F)(F)F)CC[C@H](N)C(=O)O (stereo partly shown) [Compound 239] | ≥ 1
≤ 0.02 | N#Cc1cccc(-c2ccc(C(CCS(=N)(=O)CC[C@H](N)C(=O)O)C(F)(F)F)cc2)c1F (stereo partly shown) [Compound 240] | ≥ 1
≤ 0.02 | COc1cncc(-c2ccc(C(CCS(=N)(=O)CC[C@H](N)C(=O)O)C(F)(F)F)cc2)c1 (stereo partly shown) [Compound 242] | ≥ 1
≤ 0.02 | N#Cc1ccc(-c2ccc(C(CCS(=N)(=O)CC[C@H](N)C(=O)O)C(F)(F)F)cc2)cn1 (stereo partly shown) [Compound 244] | ≥ 1
≤ 0.02 | N=S(=O)(CCC(c1ccc(-c2cncc(F)c2)cc1)C(F)(F)F)CC[C@H](N)C(=O)O (stereo partly shown) [Compound 247] | ≥ 1
≤ 0.02 | N=S(=O)(CCC(c1ccc(-c2cncc(C(F)(F)F)c2)cc1)C(F)(F)F)CC[C@H](N)C(=O)O (stereo partly shown) [Compound 250] | ≥ 1
≤ 0.02 | N=S(=O)(CCC(Cc1ccccc1)C(F)(F)F)CC[C@H](N)C(=O)O (stereo partly drawn) [Compound 292, (2S)-2-amino-4-(3-benzyl-4,4,4-trifluorobutylsulfonimidoyl)butanoic acid] | ≥ 1
